Literature values in patent publication US20050250674A1, “Nutritional and food supplement preparation comprising creatine and orotic acid complexes, derivatives and analogs” (priority 2004, published 2005).

Settings: oral ingestion of about 20 to 30 g per day, divided between several doses, for several days

CN(CC(=O)O)C(=N)N [creatine, methyl guanidine-acetic acid]
increase in human skeletal muscle total creatine content: greater than 20%
